In PubChem BioAssay (NCI):
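Five concentrations, 48 hours, 96-well plates. GI50: concentration for 50% inhibition of growth. TGI is the concentration that stops growth completely.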

Legend:
Assay in all cases: inhibition of tumour cell growth, NCI panel, 48 h; in the data active = GI50 below about 0.43 µM; inactive = the rest
SNB-75 CNS = system: SNB-75 CNS
IGROV1 ovarian = system: IGROV1 ovarian
HOP-62 NSCLC = system: HOP-62 NSCLC
MALME-3M melanoma = system: MALME-3M melanoma
SF-268 CNS = system: SF-268 CNS
SF-539 CNS = system: SF-539 CNS
BT-549 breast = system: BT-549 breast
PC-3 prostate = system: PC-3 prostate
HOP-92 NSCLC = system: HOP-92 NSCLC
T-47D breast = system: T-47D breast
RPMI-8226 leukemia = system: RPMI-8226 leukemia
OVCAR-8 ovarian = system: OVCAR-8 ovarian
UO-31 renal = system: UO-31 renal
CCRF-CEM leukemia = system: CCRF-CEM leukemia
MCF7 breast = system: MCF7 breast
U251 CNS = system: U251 CNS
DU-145 prostate = system: DU-145 prostate
SNB-19 CNS = system: SNB-19 CNS
COLO 205 colon = system: COLO 205 colon
MDA-MB-231 breast = system: MDA-MB-231 breast
ACHN renal = system: ACHN renal
K-562 leukemia = system: K-562 leukemia
UACC-62 melanoma = system: UACC-62 melanoma
M14 melanoma = system: M14 melanoma
SN12C renal = system: SN12C renal
RXF 393 renal = system: RXF 393 renal
HCC-2998 colon = system: HCC-2998 colon
SK-MEL-2 melanoma = system: SK-MEL-2 melanoma
TK-10 renal = system: TK-10 renal
NCI-H522 lung = system: NCI-H522 lung
SF-295 CNS = system: SF-295 CNS
CAKI-1 renal = system: CAKI-1 renal
EKVX NSCLC = system: EKVX NSCLC
SK-MEL-28 melanoma = system: SK-MEL-28 melanoma
OVCAR-4 ovarian = system: OVCAR-4 ovarian
HCT-116 colon = system: HCT-116 colon
OVCAR-5 ovarian = system: OVCAR-5 ovarian
786-0 renal = system: 786-0 renal
NCI-H226 lung = system: NCI-H226 lung
SK-OV-3 ovarian = system: SK-OV-3 ovarian
NCI-H23 lung = system: NCI-H23 lung
A549 NSCLC = system: A549 NSCLC
NCI/ADR-RES ovarian = system: NCI/ADR-RES ovarian
A498 renal = system: A498 renal
OVCAR-3 ovarian = system: OVCAR-3 ovarian

CN1CCN(C(=O)COc2ccc(/C=C3\CC4C5CC=C6CC(Cl)CCC6(C)C5CCC4(C)C3=O)cc2)CC1 (stereo not given)
inactive: GI50 (SNB-75 CNS) 19 µM | GI50 (IGROV1 ovarian) > 100 µM | GI50 (HOP-62 NSCLC) 36.4 µM | GI50 (MALME-3M melanoma) > 100 µM | GI50 (SF-268 CNS) > 100 µM | GI50 (SF-539 CNS) > 100 µM | GI50 (BT-549 breast) 96.1 µM | GI50 (PC-3 prostate) > 100 µM | GI50 (HOP-92 NSCLC) 10.4 µM | GI50 (T-47D breast) > 100 µM | GI50 (RPMI-8226 leukemia) 6.9 µM | GI50 (OVCAR-8 ovarian) > 100 µM | GI50 (UO-31 renal) > 100 µM | GI50 (CCRF-CEM leukemia) 3.94 µM | GI50 (MCF7 breast) > 100 µM | GI50 (U251 CNS) 3.33 µM | GI50 (DU-145 prostate) > 100 µM | GI50 (SNB-19 CNS) > 100 µM | GI50 (COLO 205 colon) > 100 µM | GI50 (MDA-MB-231 breast) > 100 µM | GI50 (ACHN renal) > 100 µM | GI50 (K-562 leukemia) 2.61 µM | GI50 (UACC-62 melanoma) > 100 µM | GI50 (M14 melanoma) > 100 µM | GI50 (SN12C renal) > 100 µM | GI50 (RXF 393 renal) 14.3 µM | GI50 (HCC-2998 colon) > 100 µM | GI50 (SK-MEL-2 melanoma) > 100 µM | GI50 (TK-10 renal) 27.4 µM | GI50 (NCI-H522 lung) > 100 µM | GI50 (SF-295 CNS) > 100 µM | GI50 (CAKI-1 renal) > 100 µM | GI50 (EKVX NSCLC) > 100 µM | GI50 (SK-MEL-28 melanoma) > 100 µM | GI50 (OVCAR-4 ovarian) > 100 µM | GI50 (HCT-116 colon) 3.08 µM | GI50 (OVCAR-5 ovarian) > 100 µM | GI50 (786-0 renal) 88.1 µM | GI50 (NCI-H226 lung) > 100 µM | GI50 (SK-OV-3 ovarian) > 100 µM | GI50 (NCI-H23 lung) > 100 µM | GI50 (A549 NSCLC) > 100 µM | GI50 (NCI/ADR-RES ovarian) > 100 µM | GI50 (A498 renal) > 100 µM | GI50 (OVCAR-3 ovarian) > 100 µM
56.7 µM: TGI (SNB-75 CNS)
> 100 µM: TGI (IGROV1 ovarian) | TGI (HOP-62 NSCLC) | TGI (MALME-3M melanoma) | TGI (SF-268 CNS) | TGI (SF-539 CNS) | TGI (BT-549 breast) | TGI (PC-3 prostate) | TGI (HOP-92 NSCLC) | TGI (T-47D breast) | TGI (RPMI-8226 leukemia) | TGI (OVCAR-8 ovarian) | TGI (UO-31 renal) | TGI (CCRF-CEM leukemia) | TGI (MCF7 breast) | TGI (U251 CNS) | TGI (DU-145 prostate) | TGI (SNB-19 CNS) | TGI (COLO 205 colon) | TGI (MDA-MB-231 breast) | TGI (ACHN renal) | TGI (K-562 leukemia) | TGI (UACC-62 melanoma) | TGI (M14 melanoma) | TGI (SN12C renal) | TGI (RXF 393 renal) | TGI (HCC-2998 colon) | TGI (SK-MEL-2 melanoma) | TGI (TK-10 renal) | TGI (NCI-H522 lung) | TGI (SF-295 CNS) | TGI (CAKI-1 renal) | TGI (EKVX NSCLC) | TGI (SK-MEL-28 melanoma) | TGI (OVCAR-4 ovarian) | TGI (HCT-116 colon) | TGI (OVCAR-5 ovarian) | TGI (786-0 renal) | TGI (NCI-H226 lung) | TGI (SK-OV-3 ovarian) | TGI (NCI-H23 lung) | TGI (A549 NSCLC) | TGI (NCI/ADR-RES ovarian) | TGI (A498 renal) | TGI (OVCAR-3 ovarian)
